The test system of the experiment is P388 leukemia ip, CD2F1 mice, survival T/C. Put plainly: NCI In Vivo Anticancer Drug Screen. Data for tumor model P388 Leukemia (intraperitoneal) in CD2F1 (CDF1) mice. Particulars: endpoint: median survival time, higher = longer survival. The procedure, abridged: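 Mice carrying the transplanted tumor received test compound or vehicle. Survival was recorded in each group, and the value is the treated-group measurement divided by that of the vehicle-treated control group.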

[1] abbreviates: dose: 50.0 mg/kg/injection, schedule: Q01DX009 (ip), vehicle: saline with Tween-80.
Where [2] appears, read: dose: 100.0 mg/kg/injection, schedule: Q01DX009 (ip), vehicle: saline with Tween-80.
The mark [3] stands for this setting: dose: 200.0 mg/kg/injection, schedule: Q01DX009 (ip), vehicle: saline with Tween-80.
[4] abbreviates: dose: 50.0 mg/kg/injection, schedule: Q01DX009 (ip), vehicle: Klucel (hydroxypropylcellulose) (HPC).
[5] abbreviates: dose: 100.0 mg/kg/injection, schedule: Q01DX009 (ip), vehicle: Klucel (hydroxypropylcellulose) (HPC).
[6] abbreviates: dose: 200.0 mg/kg/injection, schedule: Q01DX009 (ip), vehicle: Klucel (hydroxypropylcellulose) (HPC).
[7] abbreviates: dose: 60.0 mg/kg/injection, schedule: Q01DX005 (ip), vehicle: Klucel (hydroxypropylcellulose) (HPC).
[8] abbreviates: dose: 50.0 mg/kg/injection, schedule: Q01DX005 (ip), vehicle: Klucel (hydroxypropylcellulose) (HPC).
Setting [9] is: dose: 100.0 mg/kg/injection, schedule: Q01DX005 (ip), vehicle: Klucel (hydroxypropylcellulose) (HPC).
[10] abbreviates: dose: 200.0 mg/kg/injection, schedule: Q01DX005 (ip), vehicle: Klucel (hydroxypropylcellulose) (HPC).
The mark [11] stands for this setting: dose: 25.0 mg/kg/injection, schedule: Q01DX009 (ip), vehicle: Klucel (hydroxypropylcellulose) (HPC).
Setting [12] is: dose: 50.0 mg/kg/injection, schedule: Q01DX005 (ip), vehicle: saline with Tween-80.

Molecules are shown by their SMILES. Several values for one entry are separate records, joined by “and”; a condition that tells them apart may be missing. Equal values may be shown once. Toxic doses and inconclusive results are not listed. Peptide text beside a SMILES is read from it. * marks the point of attachment. Boc = CC(C)(C)OC(=O)*

`COc1ccc(C(c2c(O)cc(C)[nH]c2=O)c2c(O)cc(C)[nH]c2=O)cc1F`: the T/C runs as follows: under setting [1], 97 % of control; under setting [2], 96 % of control; under setting [3], 95 % of control.
Turning to `CN(C)NC=O`, the T/C by setting is: (dose: 60.0 mg/kg/injection, schedule: Q01DX005 (ip), vehicle: saline) 102 % of control; (dose: 120.0 mg/kg/injection, schedule: Q01DX005 (ip), vehicle: saline) 102 % of control; (dose: 240.0 mg/kg/injection, schedule: Q01DX005 (ip), vehicle: saline) 114 % of control.
For `CCOC(=O)C(=O)Nc1c(C(=O)OC)cc(C)c(C)c1C#N`, the T/C by setting is: under setting [4], 93 % of control; under setting [5], 94 % of control; under setting [6], 93 % of control.
With `Cn1cnc([N+](=O)[O-])c1C(=O)O`, the T/C reads like this: (dose: 50.0 mg/kg/injection, schedule: Q01DX009 (ip), vehicle: saline) 107 % of control; (dose: 100.0 mg/kg/injection, schedule: Q01DX009 (ip), vehicle: saline) 89 % of control.
On to `NC(=O)C1CCCCC1C(N)=O` (configuration not stated), for which the T/C under setting [2] is 100 % of control; the T/C under setting [3] was 104 % of control; the T/C (dose: 400.0 mg/kg/injection, schedule: Q01DX009 (ip), vehicle: saline with Tween-80) is 104 % of control.
For the molecule `Nc1cc(Cl)c(O)c(Cl)c1`, the T/C is, setting by setting: (dose: 25.0 mg/kg/injection, schedule: Q01DX001 (ip), vehicle: saline with Tween-80) 100 % of control; (dose: 50.0 mg/kg/injection, schedule: Q01DX001 (ip), vehicle: saline with Tween-80) 95 % of control; (dose: 100.0 mg/kg/injection, schedule: Q01DX001 (ip), vehicle: saline with Tween-80) 90 % of control.
`Cc1cc2c(c(C#N)c1C)NC=NC2C` (configuration not stated): the T/C under setting [1] is 94 % of control and the T/C under setting [2] is 105 % of control.
As for `CCCCNCCC(SSSC(CCNCCCC)c1ccc(Cl)cc1)c1ccc(Cl)cc1` (configuration not stated), the T/C by setting is: (dose: 6.25 mg/kg/injection, schedule: Q01DX009 (ip), vehicle: saline with Tween-80) 100 % of control; (dose: 12.5 mg/kg/injection, schedule: Q01DX009 (ip), vehicle: saline with Tween-80) 100 % of control; (dose: 25.0 mg/kg/injection, schedule: Q01DX009 (ip), vehicle: saline with Tween-80) 90 % of control.
With `O=C(NC1(Sc2ccccc2)CC1)c1ccc(Cl)cc1`, the T/C (dose: 15.0 mg/kg/injection, schedule: Q01DX005 (ip), vehicle: Klucel (hydroxypropylcellulose) (HPC)) is 98 % of control; the T/C (dose: 30.0 mg/kg/injection, schedule: Q01DX005 (ip), vehicle: Klucel (hydroxypropylcellulose) (HPC)) was 88 % of control; the T/C under setting [7] was 88 % of control.
Regarding `CCOC(=O)Cc1oc2c(C(C)=O)c(O)c(C)c(O)c2c1C`, the T/C under setting [8] was 88 % of control, the T/C under setting [9] was 89 % of control and the T/C under setting [10] was 87 % of control.
Take `O=CNc1ccc(Cl)cc1C(=O)c1ccccc1`: the T/C runs as follows: under setting [4], 108 % of control; under setting [5], 100 % of control; under setting [6], 95 % of control.
In the case of `O=S(=O)(OCC#CCOS(=O)(=O)c1ccc(Cl)c(Cl)c1)c1ccc(Cl)c(Cl)c1`, the T/C reads like this: (dose: 12.5 mg/kg/injection, schedule: Q01DX009 (ip), vehicle: Klucel (hydroxypropylcellulose) (HPC)) 95 % of control; under setting [11], 92 % of control; under setting [4], 91 % of control; under setting [5], 92 % of control.
For `CN1CC[C@@H](c2ccccc2)[C@@H](O)C1`, the T/C is, setting by setting: under setting [12], 97 % of control; (dose: 100.0 mg/kg/injection, schedule: Q01DX005 (ip), vehicle: saline with Tween-80) 100 % of control.
Turning to `COC1OC(CO)C2OC(C)(C)OC12` (configuration not stated), the T/C (dose: 50.0 mg/kg/injection, schedule: Q01DX005 (ip), vehicle: suspension in saline) was 101 % of control; the T/C (dose: 100.0 mg/kg/injection, schedule: Q01DX005 (ip), vehicle: suspension in saline) is 106 % of control; the T/C (dose: 200.0 mg/kg/injection, schedule: Q01DX005 (ip), vehicle: suspension in saline) is 101 % of control.
Turning to `COC(=O)C(Cc1ccccc1)NC(=O)C(Cc1ccccc1)NC(=O)OC(C)(C)C` (stereo not drawn) (Boc-Phe-Phe-OMe; configuration not given here), the T/C by setting is: under setting [8], 97 % of control; under setting [9], 95 % of control; under setting [10], 101 % of control.
`CCCOC1CC(C)(O)Cc2cc3c(c(O)c21)C(=O)c1c(O)cc2c(c1C3=O)OC1OC2(C)C(O)C(N(C)C)C1O` (configuration not stated): the T/C reads like this: (dose: 1.56 mg/kg/injection, schedule: Q01DX009 (ip), vehicle: other) 124 % of control; (dose: 3.13 mg/kg/injection, schedule: Q01DX009 (ip), vehicle: other) 150 % of control.
In the case of `Fc1ccc(Nc2nnc(-c3ccc(Cl)cc3Cl)o2)cc1`, the T/C is, setting by setting: (dose: 12.5 mg/kg/injection, schedule: Q01DX005 (ip), vehicle: saline with Tween-80) 97 % of control; (dose: 25.0 mg/kg/injection, schedule: Q01DX005 (ip), vehicle: saline with Tween-80) 99 % of control; under setting [12], 93 % of control and 97 % of control; (dose: 200.0 mg/kg/injection, schedule: Q01DX005 (ip), vehicle: saline with Tween-80) 96 % of control.
As to `CSc1cccc(NC(=S)NN/C(=N/S(=O)(=O)c2ccccc2)N2CCCC2)c1`, the T/C under setting [4] is 102 % of control, the T/C under setting [5] was 101 % of control and the T/C under setting [6] is 99 % of control.
For `CSC(=S)/N=c1\ccc(C)cn1C`, the T/C by setting is: (dose: 12.5 mg/kg/injection, schedule: Q04DX002 (ip), vehicle: saline with Tween-80) 100 % of control; (dose: 25.0 mg/kg/injection, schedule: Q04DX002 (ip), vehicle: saline with Tween-80) 100 % of control; (dose: 50.0 mg/kg/injection, schedule: Q04DX002 (ip), vehicle: saline with Tween-80) 99 % of control.
As for `Cc1cc(=O)oc2cc(OC(=O)N(C)C)ccc12`, the T/C runs as follows: (dose: 100.0 mg/kg/injection, schedule: Q04DX003 (ip), vehicle: saline) 115 % of control; (dose: 200.0 mg/kg/injection, schedule: Q04DX003 (ip), vehicle: saline) 112 % of control; (dose: 400.0 mg/kg/injection, schedule: Q04DX003 (ip), vehicle: saline) 97 % of control.
Consider `COC1OC2COC(c3ccccc3)OC2C(N=Cc2ccccc2)C1O` (configuration not stated), for which the T/C (dose: 60.0 mg/kg/injection, schedule: Q01DX005 (ip), vehicle: saline with Tween-80) is 104 % of control; the T/C (dose: 120.0 mg/kg/injection, schedule: Q01DX005 (ip), vehicle: saline with Tween-80) is 103 % of control; the T/C (dose: 240.0 mg/kg/injection, schedule: Q01DX005 (ip), vehicle: saline with Tween-80) was 100 % of control.
Regarding `COC(=O)C1(CC(=O)C2CC2)NC(=S)NC(=O)C1C#N` (configuration not stated), the T/C reads like this: under setting [7], 103 % of control; (dose: 120.0 mg/kg/injection, schedule: Q01DX005 (ip), vehicle: Klucel (hydroxypropylcellulose) (HPC)) 100 % of control; (dose: 240.0 mg/kg/injection, schedule: Q01DX005 (ip), vehicle: Klucel (hydroxypropylcellulose) (HPC)) 100 % of control.
Turning to `S=c1[nH][nH]c(=S)s1`, the T/C is 95 % of control under setting [11] and 95 % of control under setting [4].
As for `CN1CCC(CC2CCCCN2)CC1` (configuration not stated), the T/C runs as follows: (dose: 6.25 mg/kg/injection, schedule: Q01DX009 (ip), vehicle: distilled water + Tween-80) 99 % of control; (dose: 12.5 mg/kg/injection, schedule: Q01DX009 (ip), vehicle: distilled water + Tween-80) 105 % of control and 95 % of control; (dose: 25.0 mg/kg/injection, schedule: Q01DX009 (ip), vehicle: distilled water + Tween-80) 98 % of control and 122 % of control; (dose: 50.0 mg/kg/injection, schedule: Q01DX009 (ip), vehicle: distilled water + Tween-80) 108 % of control and 116 % of control; (dose: 100.0 mg/kg/injection, schedule: Q01DX009 (ip), vehicle: distilled water + Tween-80) 103 % of control.
With `CC(=O)c1c(O)c(C)c(O)c2c1OC1=Cc3onc(C)c3C(=O)C12C` (configuration not stated), the T/C (dose: 50.0 mg/kg/injection, schedule: Q01DX009 (ip), vehicle: gum acacia) is 99 % of control and 102 % of control; the T/C (dose: 100.0 mg/kg/injection, schedule: Q01DX009 (ip), vehicle: gum acacia) is 102 % of control and 104 % of control; the T/C (dose: 200.0 mg/kg/injection, schedule: Q01DX009 (ip), vehicle: gum acacia) was 92 % of control and 93 % of control.
Regarding `COC(=O)C(CP(C)(C)=O)C(N=C(C)C(F)(F)F)(c1ccccc1)c1ccccc1` (configuration not stated), the T/C runs as follows: under setting [8], 100 % of control; under setting [9], 100 % of control; under setting [10], 107 % of control.

(Values after PubChem BioAssay AID330 (DTP/NCI, 2004).)
